Data: patent publication US9573956B2, “Compounds as dual inhibitors of phosphodiesterases and histone deacetylases” (FUNDACIÓN PARA LA INVESTIGACIÓN MÉDICA APLICADA, priority 2013, dated 2017)

Key:
[1] = molecular target: T1, HDAC2 (Homo sapiens, UniProt Q92769); assay: HDAC enzyme activity assay (fluorogenic substrate), HDAC2; assay type: biochemical; settings: recombinant enzyme; read-out: HDAC2 inhibition (IC50)
T1 construct: NM_001527; Cat. #50002) is full-length with C-terminal his tag; His (C); purchased BPS Biosciences 50002; host or cells: baculovirus infected Sf9 cells

[2] = molecular target: HDAC1 (Homo sapiens, UniProt Q13547); assay: HDAC enzyme activity assay (fluorogenic substrate), HDAC1; assay type: biochemical; settings: recombinant enzyme; read-out: HDAC1 inhibition (IC50)
[3] = molecular target: T2, HDAC6 (Homo sapiens, UniProt Q9UBN7); assay: HDAC enzyme activity assay (fluorogenic substrate), HDAC6; assay type: biochemical; settings: recombinant enzyme; read-out: HDAC6 inhibition (IC50)
T2 construct: BC069243; Cat. #50006) is full-length with N-terminal GST tag; GST (N); purchased BPS Biosciences 50006; host or cells: baculovirus infected Sf9 cells
T2 sequence (Q9UBN7 1-1215): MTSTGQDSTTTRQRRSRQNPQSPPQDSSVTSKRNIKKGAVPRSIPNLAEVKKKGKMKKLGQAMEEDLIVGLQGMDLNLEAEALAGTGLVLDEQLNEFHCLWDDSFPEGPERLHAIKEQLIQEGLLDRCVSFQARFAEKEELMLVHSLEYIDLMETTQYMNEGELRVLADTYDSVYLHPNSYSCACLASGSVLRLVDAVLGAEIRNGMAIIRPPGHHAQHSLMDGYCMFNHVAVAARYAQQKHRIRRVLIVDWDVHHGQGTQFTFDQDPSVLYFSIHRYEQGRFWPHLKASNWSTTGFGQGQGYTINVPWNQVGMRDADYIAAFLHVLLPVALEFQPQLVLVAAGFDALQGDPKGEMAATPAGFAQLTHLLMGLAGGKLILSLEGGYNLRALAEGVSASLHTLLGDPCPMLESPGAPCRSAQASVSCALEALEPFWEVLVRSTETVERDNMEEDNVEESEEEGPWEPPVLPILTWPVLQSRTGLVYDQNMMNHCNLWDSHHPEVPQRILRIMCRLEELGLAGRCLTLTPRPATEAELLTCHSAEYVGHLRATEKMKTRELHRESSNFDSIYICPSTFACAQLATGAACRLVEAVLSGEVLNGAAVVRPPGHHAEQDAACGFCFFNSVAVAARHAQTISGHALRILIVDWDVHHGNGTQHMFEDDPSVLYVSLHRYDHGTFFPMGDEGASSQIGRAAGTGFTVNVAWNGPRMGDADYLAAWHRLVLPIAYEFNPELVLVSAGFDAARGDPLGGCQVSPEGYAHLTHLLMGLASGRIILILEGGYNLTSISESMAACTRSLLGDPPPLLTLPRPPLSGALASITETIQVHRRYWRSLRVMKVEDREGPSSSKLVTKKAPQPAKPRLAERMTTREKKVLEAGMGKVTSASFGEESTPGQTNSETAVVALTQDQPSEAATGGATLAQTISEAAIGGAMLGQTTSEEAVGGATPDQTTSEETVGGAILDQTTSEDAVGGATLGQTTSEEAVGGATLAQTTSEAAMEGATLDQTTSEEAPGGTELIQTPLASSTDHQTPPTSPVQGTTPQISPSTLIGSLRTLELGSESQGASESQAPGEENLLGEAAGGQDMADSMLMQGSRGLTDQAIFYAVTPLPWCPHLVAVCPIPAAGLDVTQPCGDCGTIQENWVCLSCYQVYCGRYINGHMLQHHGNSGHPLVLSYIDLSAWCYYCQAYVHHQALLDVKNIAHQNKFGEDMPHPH

[4] = molecular target: T3, PDE9A isoform b (Homo sapiens, UniProt O76083); assay: PDE enzyme activity assay (HTRF cGMP), PDE9A; assay type: biochemical; settings: recombinant enzyme; read-out: PDE9A inhibition (IC50)
T3 construct: they are full-length with N-terminal GST tag; GST (N); purchased BPS Biosciences 60090; host or cells: baculovirus infected Sf9 cells

[5] = molecular target: T4, PDE5A (Homo sapiens, UniProt O76074); assay: PDE enzyme activity assay (HTRF cGMP), PDE5A; assay type: biochemical; settings: recombinant enzyme; read-out: PDE5A1 inhibition (IC50)
T4 construct: they are full-length with N-terminal GST tag; GST (N); purchased BPS Biosciences 60050; host or cells: baculovirus infected Sf9 cells

[6] = molecular target: T5, HDAC3 (Homo sapiens, UniProt O15379); assay: HDAC enzyme activity assay (fluorogenic substrate), HDAC3; assay type: biochemical; settings: recombinant enzyme; read-out: HDAC3 inhibition (IC50)
T5 construct: is full-length with C-terminal his tag and human NCOR2, N-terminal GST tag; His (C); purchased BPS Biosciences 50003; host or cells: baculovirus infected Sf9 cells

[7] = system: pCREB; assay: PDE activity in wild type primary neurons (Western blot pCREB); assay type: cell-based; settings: Mus musculus, Neuron, 0.5 h, 30 min, EC50 = 50% increase in pCREB over basal
[8] = system: acetylated histone 3 at Lys9 (AcH3K9); assay: HDAC activity in wild type primary neurons (Western blot AcH3K9); assay type: cell-based, mouse; settings: Mus musculus, Neuron, 0.5 h, 30 min, EC50 = 50% increase in AcH3K9 over basal, read-out: AcH3 (EC50)

T3 sequence (O76083 1-533 isoform O76083-2): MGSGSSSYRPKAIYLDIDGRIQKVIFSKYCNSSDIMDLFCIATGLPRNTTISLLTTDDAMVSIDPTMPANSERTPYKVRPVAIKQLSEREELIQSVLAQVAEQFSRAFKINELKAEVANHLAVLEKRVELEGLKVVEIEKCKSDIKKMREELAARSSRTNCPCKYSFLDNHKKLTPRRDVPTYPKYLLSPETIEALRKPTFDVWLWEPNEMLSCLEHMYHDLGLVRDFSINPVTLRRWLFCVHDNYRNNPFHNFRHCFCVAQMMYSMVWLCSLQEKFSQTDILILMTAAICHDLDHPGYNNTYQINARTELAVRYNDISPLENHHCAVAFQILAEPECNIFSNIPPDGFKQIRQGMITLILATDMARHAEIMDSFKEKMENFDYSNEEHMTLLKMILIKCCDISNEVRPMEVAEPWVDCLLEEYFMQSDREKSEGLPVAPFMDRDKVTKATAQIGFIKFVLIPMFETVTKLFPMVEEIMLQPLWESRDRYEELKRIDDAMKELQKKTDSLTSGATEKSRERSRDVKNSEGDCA
Chain of HDAC1 (Q13547 whole entry): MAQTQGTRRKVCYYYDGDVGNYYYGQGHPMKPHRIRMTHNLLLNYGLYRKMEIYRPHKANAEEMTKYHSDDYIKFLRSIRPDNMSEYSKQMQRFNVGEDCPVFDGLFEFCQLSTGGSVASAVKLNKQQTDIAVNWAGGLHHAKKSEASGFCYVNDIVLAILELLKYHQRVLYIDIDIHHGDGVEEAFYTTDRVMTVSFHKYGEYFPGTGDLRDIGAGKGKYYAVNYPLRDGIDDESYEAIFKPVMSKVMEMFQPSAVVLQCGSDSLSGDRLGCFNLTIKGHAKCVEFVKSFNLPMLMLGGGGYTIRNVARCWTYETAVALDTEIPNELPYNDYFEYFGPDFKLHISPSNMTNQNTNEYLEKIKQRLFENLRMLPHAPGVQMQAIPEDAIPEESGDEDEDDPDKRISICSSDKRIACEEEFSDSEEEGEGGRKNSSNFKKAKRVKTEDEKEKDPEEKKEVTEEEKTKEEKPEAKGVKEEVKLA
T1 sequence (Q92769 whole entry): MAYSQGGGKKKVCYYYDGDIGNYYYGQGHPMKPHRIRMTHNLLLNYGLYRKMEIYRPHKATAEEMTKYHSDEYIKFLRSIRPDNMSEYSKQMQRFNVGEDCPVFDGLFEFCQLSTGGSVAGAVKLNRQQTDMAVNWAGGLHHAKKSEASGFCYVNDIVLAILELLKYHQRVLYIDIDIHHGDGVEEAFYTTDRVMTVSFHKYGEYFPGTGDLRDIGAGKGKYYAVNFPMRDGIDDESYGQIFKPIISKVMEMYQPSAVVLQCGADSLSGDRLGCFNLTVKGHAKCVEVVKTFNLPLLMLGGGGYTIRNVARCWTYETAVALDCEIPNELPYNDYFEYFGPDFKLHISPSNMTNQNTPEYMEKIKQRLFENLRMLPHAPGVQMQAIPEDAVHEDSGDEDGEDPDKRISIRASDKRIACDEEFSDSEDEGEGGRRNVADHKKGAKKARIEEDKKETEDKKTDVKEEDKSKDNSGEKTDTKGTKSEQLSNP
T5 sequence (O15379 whole entry): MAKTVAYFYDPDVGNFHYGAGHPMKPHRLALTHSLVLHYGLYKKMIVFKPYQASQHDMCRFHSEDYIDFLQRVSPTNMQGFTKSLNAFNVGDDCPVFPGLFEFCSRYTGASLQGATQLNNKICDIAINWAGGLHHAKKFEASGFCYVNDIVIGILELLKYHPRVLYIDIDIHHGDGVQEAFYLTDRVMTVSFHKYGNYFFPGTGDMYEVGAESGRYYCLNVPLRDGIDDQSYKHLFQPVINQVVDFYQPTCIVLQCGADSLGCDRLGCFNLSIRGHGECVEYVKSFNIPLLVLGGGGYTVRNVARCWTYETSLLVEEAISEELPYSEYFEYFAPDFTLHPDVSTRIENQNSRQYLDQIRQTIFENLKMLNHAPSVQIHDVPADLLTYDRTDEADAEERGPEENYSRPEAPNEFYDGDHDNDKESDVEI
T5 sequence (Q9Y618 395-489 partner limits assumed): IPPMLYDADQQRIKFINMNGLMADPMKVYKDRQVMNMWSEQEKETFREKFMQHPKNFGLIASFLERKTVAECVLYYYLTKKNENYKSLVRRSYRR

SMILES	IC50 [1] [nM]	IC50 [2] [nM]	IC50 [3] [nM]	IC50 [4] [nM]	IC50 [5] [nM]	IC50 [6] [µM]	EC50 [7] [nM]	EC50 [8] [nM]
CCCc1nn(C)c2c(=O)[nH]c(-c3cc(Cc4ccc(C(=O)NO)o4)ccc3OCC)nc12 [Example 1-17]	> 10000	1000 to 10000	10 to 1000	–	< 10	> 10	–	–
CCCc1nn(C)c2c(=O)[nH]c(-c3cc(CN4CCN(c5ncc(C(=O)NO)cn5)CC4)ccc3OCC)nc12 [Example 1-48, 2-[4-[[4-ethoxy-3-(1-methyl-7-oxo-3-propyl-6H-pyrazolo[4,3-d]pyrimidin-5-yl)phenyl]methyl]piperazin-1-yl]pyrimidine-5-carbohydroxamic acid]	10 to 1000	10 to 1000	10 to 1000	–	< 10	–	10 to 1000	10 to 1000
CCCc1nn(C)c2c(=O)[nH]c(-c3cc(-c4ccc(C(=O)NO)cc4)ccc3OCC)nc12 [Example 1-30]	1000 to 10000	10 to 1000	10 to 1000	–	< 10	–	10 to 1000	10 to 1000
CCCc1nn(C)c2c(=O)[nH]c(-c3cc(C4CCC(C(=O)NO)CC4)ccc3OCC)nc12 (centres unmarked) [Example 1-40, 4-[4-ethoxy-3-(1-methyl-7-oxo-3-propyl-6H-pyrazolo[4,3-d]pyrimidin-5-yl)phenyl]cyclohexanecarbohydroxamic acid]	> 10000	1000 to 10000	10 to 1000	–	10 to 1000	–	1000 to 10000	10 to 1000
CCCc1nc(C)c2c(=O)[nH]c(-c3cc(S(=O)(=O)Nc4ccc(/C=C/C(=O)NO)cc4)ccc3OCC)nn12 [Example 2-03]	–	10 to 1000	–	1000 to 10000	< 10	–	–	–
CCCc1nc(C)c2c(=O)[nH]c(-c3cc(S(=O)(=O)N4CCN(CCCC(=O)NO)CC4)ccc3OCC)nn12 [Example 2-02, 4-[4-[4-ethoxy-3-(5-methyl-4-oxo-7-propyl-3H-imidazo[5,1-f][1,2,4]triazin-2-yl)phenyl]sulfonylpiperazin-1-yl]butanehydroxamic acid]	–	10 to 1000	–	10 to 1000	< 10	–	–	–
CCCc1nc(C)c2c(=O)[nH]c(-c3cc(CC4CC(C(=O)NO)C4)ccc3OCC)nn12 (centres unmarked) [Example 2-07, 3-[[4-ethoxy-3-(5-methyl-4-oxo-7-propyl-3H-imidazo[5,1-f][1,2,4]triazin-2-yl)phenyl]methyl]cyclobutanecarbohydroxamic acid]	1000 to 10000	10 to 1000	10 to 1000	–	< 10	–	10 to 1000	10 to 1000
CCCc1nn(C)c2c(=O)[nH]c(-c3cc(S(=O)(=O)Nc4ccc(/C=C/C(=O)NO)cc4)ccc3OCC)nc12 [Example 1-03]	10 to 1000	10 to 1000	–	1000 to 10000	< 10	–	–	–
CCCc1nc(C)c2c(=O)[nH]c(-c3cc(S(=O)(=O)N4CCN(c5ncc(C(=O)NO)cn5)CC4)ccc3OCC)nn12 [Example 2-05]	–	< 10	–	> 10000	< 10	–	–	–
CCCc1nn(C)c2c(=O)[nH]c(-c3cc(CC4CCC(C(=O)NO)CC4)ccc3OCC)nc12 (centres unmarked) [Example 1-29, 4-[[4-ethoxy-3-(1-methyl-7-oxo-3-propyl-6H-pyrazolo[4,3-d]pyrimidin-5-yl)phenyl]methyl]cyclohexanecarbohydroxamic acid]	> 10000	10 to 1000	10 to 1000	–	10 to 1000	–	1000 to 10000	1000 to 10000

Results, then the compound that gave them:

IC50 [1] [nM]	IC50 [2] [nM]	IC50 [3] [nM]	IC50 [4] [nM]	IC50 [5] [nM]	IC50 [6] [µM]	EC50 [7] [nM]	EC50 [8] [nM]	SMILES
1000 to 10000	1000 to 10000	1000 to 10000	10 to 1000	–	–	–	–	CC(c1nc2c(cnn2C2CCOCC2)c(=O)[nH]1)N1CC(Cc2ccc(C(=O)NO)s2)C1 (centres unmarked) [Example 3-16]
1000 to 10000	10 to 1000	10 to 1000	10 to 1000	–	–	–	–	CC(c1nc2c(cnn2C2CCOCC2)c(=O)[nH]1)N1CC(Oc2ccc(C(=O)NO)cc2)C1 (centres unmarked) [Example 3-13]
–	–	10 to 1000	10 to 1000	–	–	–	–	C[C@H]1CN(Cc2ccc(C(=O)NO)cc2)C[C@@H]1c1nc2c(cnn2C2CCOCC2)c(=O)[nH]1 (racemic) [Example 3-09, 4-[[(3R,4R)-3-methyl-4-(4-oxo-1-tetrahydropyran-4-yl-5H-pyrazolo[3,4-d]pyrimidin-6-yl)pyrrolidin-1-yl]methyl]benzenecarbohydroxamic acid]
1000 to 10000	1000 to 10000	10 to 1000	10 to 1000	–	–	–	–	CC(c1nc2c(cnn2C2CCOCC2)c(=O)[nH]1)N1CC(Cc2ccc(C(=O)NO)cc2)C1 (centres unmarked) [Example 3-15]
–	10 to 1000	–	10 to 1000	1000 to 10000	–	–	–	CC1CN(CC2CCN(c3ncc(C(=O)NO)cn3)CC2)CC1c1nc2c(cnn2C2CCOCC2)c(=O)[nH]1 (racemic) [Example 3-02, 2-(4-((3-(4,5-Dihydro-1-(tetrahydro-2H-pyran-4-yl)-4-oxo-1H-pyrazolo[3,4-d]pyrimidin-6-yl)-4-methylpyrrolidin-1-yl)methyl)piperidin-1-yl)-N-hydroxypyrimidine-5-carboxamide]
10 to 1000	10 to 1000	10 to 1000	> 10000	10 to 1000	–	–	–	O=C(NO)c1cnc(N2CCC(CN3CC(=O)N4[C@H](c5ccc6c(c5)OCO6)c5[nH]c6ccccc6c5C[C@@H]4C3=O)CC2)nc1 [Example 4-05]
–	10 to 1000	–	10 to 1000	–	–	–	–	CC(c1nc2c(cnn2C2CCOCC2)c(=O)[nH]1)N1CC(OC2CCN(c3ncc(C(=O)NO)cn3)CC2)C1 (centres unmarked) [Example 3-07]
1000 to 10000	10 to 1000	10 to 1000	< 10	–	–	–	–	CC1CN(Cc2ccc(C(=O)NO)s2)CC1c1nc2c(cnn2C2CCCC2)c(=O)[nH]1 (racemic) [Example 3-17]
–	–	10 to 1000	10 to 1000	–	–	–	–	C[C@@H]1CN(Cc2ccc(C(=O)NO)cc2)C[C@H]1c1nc2c(cnn2C2CCCC2)c(=O)[nH]1 (racemic) [Example 3-11]
–	10 to 1000	–	< 10	–	–	–	–	C[C@@H]1CN(Cc2ncc(-c3ccc(C(=O)NO)cc3)cn2)C[C@H]1c1nc2c(cnn2C2CCOCC2)c(=O)[nH]1 (racemic) [Example 3-04]
–	1000 to 10000	–	10 to 1000	> 10000	–	–	–	CC(c1nc2c(cnn2C2CCOCC2)c(=O)[nH]1)N1CC(Oc2ccc(-c3ccc(C(=O)NO)cc3)cc2)C1 (centres unmarked) [Example 3-03, 4-[4-[1-[1-(4-Oxo-1-tetrahydropyran-4-yl-5H-pyrazolo[3,4-d]pyrimidin-6-yl)ethyl]azetidin-3-yl]oxyphenyl]benzene carbohydroxamic acid]
> 10000	1000 to 10000	1000 to 10000	10 to 1000	–	–	–	–	CC1CN(CC2CC(C(=O)NO)C2)CC1c1nc2c(cnn2C2CCOCC2)c(=O)[nH]1 (racemic) [Example 3-12]
–	–	10 to 1000	10 to 1000	–	–	–	–	C[C@@H]1CN(Cc2ccc(C(=O)NO)s2)C[C@H]1c1nc2c(cnn2C2CCOCC2)c(=O)[nH]1 (racemic) [Example 3-10]
